In US12351580B2, “NLRP3 modulators” (Innate Tumor Immunity, Inc., priority 2017, dated 2025):

Assays:
hNLRP3 = target: T1, hNLRP3 (Homo sapiens, UniProt Q96P20); test: Measurement of IL-1β production in PMA-differentiated THP-1 cells (hNLRP3 agonist; ELISA, alternative and hTRF procedures); assay type: cell-based
T1 construct: THP-1 cells were purchased from the American Type Culture Collection; host or cells: THP-1 cells, PMA-differentiated
Method: Measurement of IL-1β production in PMA-differentiated THP-1 cells THP-1 cells were purchased from the American Type Culture Collection and sub-cultured according to instructions from the supplier. Prior to experiments, cells were cultured in RPMI 1640 containing 10% heat inactivated FBS, penicillin (100 units/ml) and streptomycin (100 μg/ml), and maintained in log phase prior to experimental setup. Prior to the experiment THP-1 were treated with PMA (Phorbol 12-myristate 13-acetate) ([…]) for 24 hours. The day of the experiment the media was removed and attaching cells were treated with trypsin for 2 minutes, cells were then collected, washed with PBS (phosphate buffer saline), spin down, resuspended in 2% heat inactivated FBS with RPMI at a concentration of 1×10^6 cells/ml, and 100 μl was plated in a 96 well plate. Compounds were dissolved in dimethyl sulfoxide (DMSO) and added to the culture medium to achieve desired concentration (e.g. 100, 30, 10, 3, 1, 0.3 or 0.1 μM). Cells were incubated with compounds for 4 hours. Cell free supernatant was collected and the production of […] was evaluated by ELISA. A vehicle only control was run concurrently with each experiment. Final DMSO concentration was 1%.
Measurement of IL-1β Production in PMA-Differentiated THP-1 Cells (Alternative Procedure)
THP-1 cells were purchased from the American Type Culture Collection and sub-cultured according to instructions from the supplier. Prior to experiments, cells were cultured in RPMI 1640 containing 10% heat inactivated FBS, penicillin (100 units/ml), streptomycin (100 μg/ml), HEPES (10 mM) and sodium pyruvate (1 mM) and maintained in log phase prior to experimental setup. Prior to the experiment, THP-1 cells were treated with PMA (Phorbol 12-myristate 13-acetate) (20 μg/ml) overnight. The day of the experiment, the media was removed and attached cells were treated with trypsin for 2 minutes, cells were then collected, washed with PBS (phosphate buffer saline), pelleted by centrifugation and resuspended in 2% heat inactivated FBS with RPMI at a concentration of 50,000 cells/well in a 384 well plate. Cell free supernatant was collected and the production of IL-1β was evaluated by ELISA. Compounds were dissolved in dimethyl sulfoxide (DMSO) and added to the culture medium to achieve desired concentration (e.g. 100, 30, 10, 3, 1, 0.3 or 0.1 μM). Cells were incubated with compounds for 2 hours. A vehicle only control was run concurrently with each experiment. Final DMSO concentration was 1%.
Measurement of IL-1β Production—hTRF Protocol (Second Alternative Procedure)
Serial dilutions of compounds in DMSO were added to low volume 384 well plates at 100 nl/well using an ECHO 550 acoustic dispenser (Labcyte) to achieve final starting concentration of 10 μM in assay.
THP-1 cells in RPMI (Gibco, 11875) media with 10% FBS at a density of 1×10^6 cell/ml in a T175 flask were treated with a final concentration of phorbol 12-myristate 13-acetate (PMA) (Sigma, P1585) of 50 ng/ml overnight at 37° C. at 5% CO2 for differentiation. Cells were harvested the next day after rinsing well with dPBS using 0.5% trypsin. A cell solution was prepared of 1×10^6 cells/ml for 50,000 cells in 50 μl/well in RPMI media with 2% FBS. Cells were plated using a multichannel pipette onto the compound dilutions in Greiner, 384 well, black clear bottom tissue culture treated plates (781090). The plates were incubated in 37° C. incubator at 5% CO2 for 2 hours.
After the 2 hour incubation, the cell plates were spun in the centrifuge for 5 minutes at 1200 rpm. Using the Felix (CyBio), 8 μl of the supernatant was transferred to 384 well, low volume, white proxy plates. (Perkin Elmer, 6008230). A human IL1beta hTRF kit was used to analyze the supernatant (CISBIO, 62HIL1BPEG). The kit instructions were followed for preparing the IL1Beta standard curve and then the antibodies from the kit were diluted 1:40 rather than 1:20 as kit instructed.

TLR7 = target: T2, TLR7 (Homo sapiens, UniProt Q9NYK1); test: In vitro human TLR7 binding reporter assay (HEK-Blue, NF-kB/AP1-inducible SEAP); assay type: cell-based; settings: activity range symbols
T2 construct: host or cells: HEK-Blue cells (human HEK) co-expressing TLR7 and an NF-kB/AP1-inducible SEAP reporter
T2 sequence (Q9NYK1 27-1049): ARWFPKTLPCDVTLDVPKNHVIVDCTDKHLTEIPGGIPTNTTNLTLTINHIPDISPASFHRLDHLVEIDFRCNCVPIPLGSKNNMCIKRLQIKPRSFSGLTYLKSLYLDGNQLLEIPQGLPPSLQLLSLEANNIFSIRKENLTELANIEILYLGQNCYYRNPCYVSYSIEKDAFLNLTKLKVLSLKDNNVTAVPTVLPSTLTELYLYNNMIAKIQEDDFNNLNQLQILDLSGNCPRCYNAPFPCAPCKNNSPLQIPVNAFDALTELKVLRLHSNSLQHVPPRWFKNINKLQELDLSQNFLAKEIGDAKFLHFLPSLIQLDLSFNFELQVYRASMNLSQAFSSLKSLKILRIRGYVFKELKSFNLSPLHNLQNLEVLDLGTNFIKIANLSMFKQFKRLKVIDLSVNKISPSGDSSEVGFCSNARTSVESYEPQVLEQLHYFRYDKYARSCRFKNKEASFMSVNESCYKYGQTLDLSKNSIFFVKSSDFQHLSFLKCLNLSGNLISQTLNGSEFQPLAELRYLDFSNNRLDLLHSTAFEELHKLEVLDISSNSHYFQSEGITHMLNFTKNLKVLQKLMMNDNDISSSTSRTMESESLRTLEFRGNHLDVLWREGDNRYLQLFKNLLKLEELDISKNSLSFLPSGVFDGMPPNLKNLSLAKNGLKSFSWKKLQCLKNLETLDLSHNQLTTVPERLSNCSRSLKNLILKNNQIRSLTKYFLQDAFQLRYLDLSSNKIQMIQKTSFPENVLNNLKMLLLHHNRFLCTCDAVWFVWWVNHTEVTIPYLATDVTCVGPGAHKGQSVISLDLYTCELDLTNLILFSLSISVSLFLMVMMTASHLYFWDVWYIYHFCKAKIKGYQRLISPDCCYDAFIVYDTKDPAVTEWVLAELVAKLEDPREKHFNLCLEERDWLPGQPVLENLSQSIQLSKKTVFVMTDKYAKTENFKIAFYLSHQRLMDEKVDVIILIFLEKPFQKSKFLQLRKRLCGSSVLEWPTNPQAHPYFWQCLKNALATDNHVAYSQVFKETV
Method: In Vitro Human TLR7 and TLR8 Binding Reporter Assays
Logarithmically-growing human HEK-Blue cells co-expressing a TLR7 or TLR8 gene and a NF-kB/AP1-inducible SEAP (secreted embryonic alkaline phosphatase; Invivogen, San Diego, CA) reporter gene are added to individual wells of a 384-well plate (15,000 cells per 20 μL per well) and maintained for 24 h at 37° C., 5% CO2. Test compounds or DMSO are distributed to separate wells the next day using acoustic liquid handling technology (100 nL per well) and cells are subsequently incubated for 18 h at 37° C., 5% CO2. Cellular SEAP production is measured using an Envision plate reader instrument thirty minutes after adding freshly-made Quanti-Blue reagent (prepared by following manufacturer instructions; Invivogen, San Diego, CA) to the HEK-Blue TLR Nf-kB-SEAP cell reactions. All EC50 values (half-maximal effective concentration) are determined using proprietary data analysis software.

T1 sequence (Q96P20 whole entry): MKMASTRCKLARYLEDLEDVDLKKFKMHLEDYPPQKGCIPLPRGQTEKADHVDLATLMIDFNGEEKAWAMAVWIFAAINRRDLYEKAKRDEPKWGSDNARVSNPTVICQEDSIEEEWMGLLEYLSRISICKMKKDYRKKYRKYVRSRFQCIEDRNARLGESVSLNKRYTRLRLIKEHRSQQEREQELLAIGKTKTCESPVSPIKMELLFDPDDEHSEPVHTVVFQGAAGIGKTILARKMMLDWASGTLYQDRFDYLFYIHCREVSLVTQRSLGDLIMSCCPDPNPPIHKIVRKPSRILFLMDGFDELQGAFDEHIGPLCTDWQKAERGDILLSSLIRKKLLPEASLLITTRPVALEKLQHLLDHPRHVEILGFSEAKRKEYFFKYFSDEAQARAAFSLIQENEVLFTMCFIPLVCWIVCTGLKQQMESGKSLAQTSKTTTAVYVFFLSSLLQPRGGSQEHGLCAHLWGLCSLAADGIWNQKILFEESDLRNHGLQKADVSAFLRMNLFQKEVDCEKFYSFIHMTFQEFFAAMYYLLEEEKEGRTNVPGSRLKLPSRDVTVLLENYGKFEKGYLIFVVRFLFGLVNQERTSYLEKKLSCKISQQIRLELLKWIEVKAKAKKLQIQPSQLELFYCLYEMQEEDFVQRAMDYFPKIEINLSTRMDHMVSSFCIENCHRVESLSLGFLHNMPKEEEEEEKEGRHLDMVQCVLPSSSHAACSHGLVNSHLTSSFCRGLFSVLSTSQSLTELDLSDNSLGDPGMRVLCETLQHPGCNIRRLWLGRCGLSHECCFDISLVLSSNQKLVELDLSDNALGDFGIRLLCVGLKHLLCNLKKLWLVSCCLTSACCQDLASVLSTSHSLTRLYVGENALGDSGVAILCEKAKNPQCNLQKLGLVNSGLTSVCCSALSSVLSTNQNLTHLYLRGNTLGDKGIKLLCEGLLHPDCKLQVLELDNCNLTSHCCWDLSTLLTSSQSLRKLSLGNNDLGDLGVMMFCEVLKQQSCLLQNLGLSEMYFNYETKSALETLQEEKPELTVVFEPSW

SMILES: Nc1nc2cc(-c3ccsc3)ccc2c2[nH]c(CN3CCCC3=O)nc12 [Compound 308, 1-[(4-amino-7-thiophen-3-yl-1H-imidazo[4,5-c]quinolin-2-yl)methyl]pyrrolidin-2-one]
- EC50 (hNLRP3): 1.06 µM

SMILES: Nc1nc2cc(-c3cccnc3)ccc2c2[nH]c(CN3CCCCC3=O)nc12 [Compound 426]
- EC50 (hNLRP3): 4.3 µM
- EC50 (TLR7): > 100 µM

SMILES: CC(C)NCc1nc2c(N)nc3cc(-c4cc[nH]n4)ccc3c2[nH]1 [Compound 421]
- EC50 (hNLRP3): 0.24 µM

SMILES: Nc1nc2cc(-c3cc[nH]n3)ccc2c2[nH]c(CN3CCCCC3=O)nc12 [Compound 352]
- EC50 (hNLRP3): 2.23 µM

SMILES: COc1ccc(-c2ccc3c(c2)nc(N)c2nc(CN4CCCC4=O)[nH]c23)cc1 [Compound 292, 1-[[4-amino-7-(4-methoxyphenyl)-1H-imidazo[4,5-c]quinolin-2-yl]methyl]pyrrolidin-2-one]
- EC50 (hNLRP3): 4.48 µM

SMILES: CC(C)C(=O)NCc1nc2c(N)nc3cc(-c4cc[nH]n4)ccc3c2[nH]1 [Compound 107]
- EC50 (hNLRP3): 0.64 µM

SMILES: CCN(Cc1nc2c(N)nc3cc(-c4cccs4)ccc3c2[nH]1)C(=O)OC(C)(C)C [Compound 424]
- EC50 (hNLRP3): 0.79 µM
- EC50 (TLR7): > 100 µM

SMILES: CCN(Cc1nc2c(N)nc3cc(-c4cccs4)ccc3c2[nH]1)C(C)=O [Compound 425]
- EC50 (hNLRP3): 0.44 µM
- EC50 (TLR7): > 100 µM

SMILES: Nc1nc2cc(-c3cc[nH]n3)ccc2c2[nH]c(CNC(=O)C3CC3)nc12 [Compound 105]
- EC50 (hNLRP3): 0.69 µM

SMILES: COc1ccc(-c2ccc3c(c2)nc(N)c2nc(CN4CCCC4=O)[nH]c23)cn1 [Compound 304, 1-[[4-amino-7-(6-methoxypyridin-3-yl)-1H-imidazo[4,5-c]quinolin-2-yl]methyl]pyrrolidin-2-one]
- EC50 (hNLRP3): 36.4 µM

SMILES: CCCn1c(CN(CC)C(C)=O)nc2c(N)nc3cc(Br)ccc3c21 [Compound 435]
- EC50 (hNLRP3): 19.3 µM
- EC50 (TLR7): > 100 µM

SMILES: CCN(Cc1nc2c(N)nc3cc(-n4nccn4)ccc3c2[nH]1)C(=O)OC(C)(C)C [Compound 135]
- EC50 (hNLRP3): 4.6 µM

SMILES: CCN(Cc1nc2c(N)nc3cc(-c4cc[nH]n4)ccc3c2[nH]1)C(=O)c1ccccc1 [Compound 126]
- EC50 (hNLRP3): 2.1 µM

SMILES: CC(C)(C)OC(=O)N1CCN(Cc2nc3c(N)nc4cc(-c5cccnc5)ccc4c3[nH]2)C(=O)C1 [Compound 433]
- EC50 (hNLRP3): 11.5 µM

SMILES: CN1CCN(Cc2nc3c(N)nc4cc(-c5cc[nH]n5)ccc4c3[nH]2)C(=O)C1 [Compound 350]
- EC50 (hNLRP3): 10 µM

SMILES: CC(=O)NCc1nc2c(N)nc3cc(-c4cc[nH]n4)ccc3c2[nH]1 [Compound 113, N-((4-Amino-7-(1H-pyrazol-3-yl)-1H-imidazo[4,5-c]quinolin-2-yl)methyl)acetamide]
- EC50 (hNLRP3): 0.56 µM

SMILES: Nc1nc2cc(-c3cc[nH]n3)ccc2c2[nH]c(CN3CCOCC3=O)nc12 [Compound 351]
- EC50 (hNLRP3): 2.17 µM

SMILES: Nc1nc2cc(Br)ccc2c2[nH]c(CN3CCCCC3=O)nc12 [Compound 428]
- EC50 (hNLRP3): 5.1 µM
- EC50 (TLR7): > 100 µM

SMILES: CN1CCN(Cc2nc3c(N)nc4cc(-c5cc[nH]n5)ccc4c3[nH]2)C(=O)C1 [Compound 432]
- EC50 (hNLRP3): ~10 µM

SMILES: CCN(Cc1nc2c(N)nc3cc(-c4cc[nH]n4)ccc3c2[nH]1)C(=O)CO [Compound 133]
- EC50 (hNLRP3): 3.5 µM

SMILES: Nc1nc2ccccc2c2c1nc(CN1CCCC1=O)n2CCCC(=O)N1CCSCC1 [Compound 345]
- EC50 (hNLRP3): 64 µM

SMILES: CCN(C(C)=O)C(C)c1nc2c(N)nc3cc(Br)ccc3c2[nH]1 (stereo not drawn) [Compound 182, N-[1-(4-amino-7-bromo-1H-imidazo[4,5-c]quinolin-2-yl)ethyl]-N-ethylacetamide]
- EC50 (hNLRP3): 5.9 µM
- EC50 (TLR7): > 100 µM

SMILES: CS(=O)(=O)NCc1nc2c(N)nc3cc(-c4cc[nH]n4)ccc3c2[nH]1 [Compound 116]
- EC50 (hNLRP3): 1.16 µM

SMILES: Nc1nc2cc(-c3cccnc3F)ccc2c2[nH]c(CN3CCCC3=O)nc12 [Compound 307, 1-[[4-amino-7-(2-fluoropyridin-3-yl)-1H-imidazo[4,5-c]quinolin-2-yl]methyl]pyrrolidin-2-one]
- EC50 (hNLRP3): 12.3 µM

SMILES: Nc1nc2cc(-c3cc[nH]n3)ccc2c2[nH]c(CN3CC(c4ccccc4)CC3=O)nc12 (stereo not drawn) [Compound 137]
- EC50 (hNLRP3): 5.4 µM

SMILES: Nc1nc2cc(-n3cccn3)ccc2c2[nH]c(CN3CCOC3=O)nc12 [Compound 429]
- EC50 (hNLRP3): 5.8 µM
- EC50 (TLR7): > 100 µM
